Results taken from patent US11820729B2 (Johnson & Johnson Consumer Inc., priority 2014, dated 2023).

Columns and labels:
[1] = test system: 16-hour salivary biofilm on pellicle coated hydroxyapatite pegs; assay: Prevention assay: prevention of bacterial attachment to pellicle coated hydroxyapatite pegs, ATP bioluminescence; format: cell-based; conditions: for ability to prevent bacterial attachment / preventing bacterial attachment the best: simple solution solvent base formulas (Table 11); for prevention of bacterial attachment in alcohol free full formulations: Table 15 formulations, water as the only solvent; for prevention of bacterial attachment in alcohol-free full formulations: Table 17 formulations, water and propylene glycol as solvents
Protocol: The formulations in Examples 2-4, 6, 8 and 9 were prepared and test for prevention of bacterial attachment using the prevention assay. In this assay hydroxyapatite-coated polystyrene peg plate (96 pegs, N=8 per group) was exposed to saliva for one minute to form a pellicle at a temperature of 35 C. Then, for each formulation, eight pegs (N=8) were pre-treated for ten minutes with the formulation using an orbital shaker set to 500 RPM at room temperature. As a negative control, eight pegs (N=8) were pre-treated for ten minutes with sterile water. Next, a 16-hour salivary biofilm was grown on these polystyrene peg plates at a temperature of 35 C.
After all treatments were complete, the biofilm from each peg was neutralized and rinsed. The biofilm was harvested via sonication using a Q-Sonica Q700 Ultrasonic Liquid Processor with 431MP4-00 microplate horn Damper and 0.5:1 reverse gain booster (Q-Sonica, Newtown, Conn.). Using a Celsis Rapid Detection RapiScreen kit (Celsis International PLC, Chicago, Ill.), the bacteria were lysed with Celsis Luminex and then the adenosine triphosphate (ATP) from the lysed bacteria was measured using the bioluminescence marker Celcis Luminate and a Centro LB 960 Microplate Luminometer supplied by Berthold Technologies (Wildbad, Germany). Data were reported in log RLU (relative light units) where decreasing log RLUs indicated fewer viable bacteria remained on the biofilm substrate. The log RLUs for the prevention assay are shown on Tables 2, 4, 6, 10, 14, and 16.

[2] = test system: S. mutans biofilm; assay: S. mutans single species kill assay (in-vitro biofilm model); format: cell-based; conditions: simple solution formulas (Table 13), 30 second treatment
Protocol: The formulations listed in Example 7 were prepared and tested using an in-vitro single species S. mutans biofilm model. A 24-hour S. mutans biofilm is grown on a polystyrene peg plate (96 pegs, N=6 per test group). The pegs were subsequently treated for thirty seconds with each of formulations H and I, as well as positive and negative controls. The treatment is applied as a single thirty (30) second treatment. The positive control is a commercially available essential oil mouth rinse. The negative control is sterile water. After treatment the biofilm is neutralized and rinsed. The biofilm is harvested via sonication using a Misonix Ultrasonic Liquid Processor (Farmingdale, N.Y.). Using a Celsis Rapid Detection RapiScreen kit (Celsis International PLC, Chicago), the bacteria are lysed with Celsis Luminex and then the adenosine triphosphate (ATP) from the lysed bacteria is measured using the bioluminescence marker LB960 Microplate Luminometer supplied by Berthold (Wildbad, Germany). Data are reported in log RLU (relative light units) where decreasing log RLUs indicates fewer viable bacteria remaining on the biofilm substrate.

[3] = HPLC quantification of compound remaining after storage at 50° C.; format: physicochemical; conditions: storage at 50° C. for 4 and 8 weeks (Table 13 formulas)
Protocol: Briefly, formulations containing either LAE or any of the 26 compounds and standards are diluted into a solution of 50% acetonitrile and 50% water. They are evaluated on an Agilent HPLC using a Zorbax ion exchange column. In the method, 10 uL of the sample is withdrawn and ran through the HPLC with a 40% potassium phosphate (molarity at pH 3.0) 60% acetonitrile mobile phase. […] The molecule peak is auto integrated using the Online Agilent HPLC software. Comparisons are made to the standard to identify the % of compound remaining following storage.

| Molecule | ability to prevent bacterial attachment [1] | preventing bacterial attachment the best [1] | prevention of bacterial attachment in alcohol free full formulations [1] | prevention of bacterial attachment in alcohol-free full formulations [1] | log reduction in S. mutans [2] | structural stability via HPLC in simple solution formulations [3] |
| --- | --- | --- | --- | --- | --- | --- |
| CCCCCCCCCCCCCC(=O)NC(CCCNC(=N)N)C(=O)NCC (centres unmarked) [Compound 20, N-(1-(ethylamino)-5-guanidino-1-oxopentan-2-yl)tetradecanamide] | have the ability to prevent bacterial attachment | – | – | – | – | – |
| CCCCCCCCCCCC(=O)NC(COP(=O)(O)O)C(=O)NCC (centres unmarked) [Compound 16, 2-dodecanamido-3-(ethylamino)-3-oxopropyl dihydrogen phosphate] | have the ability to prevent bacterial attachment | – | – | – | – | – |
| CCCCCCCCCC(=O)NC(CCCNC(=N)N)C(=O)NCC (centres unmarked) [Compound 24, N-(1-(ethylamino)-5-guanidino-1-oxopentan-2-yl)decanamide] | have the ability to prevent bacterial attachment | – | – | – | – | – |
| CCCCCCCCCCCC(=O)NC(CCCNC(=N)N)C(=O)NCCCCCCCC (centres unmarked) [Compound 22, N-(5-guanidino-1-(octylamino)-1-oxopentan-2-yl)dodecanamide] | have the ability to prevent bacterial attachment | preventing bacterial attachment the best | – | – | – | – |
| CCCCCCCCCCCC(=O)NC(CCCNC(=N)N)C(=O)NC (centres unmarked) [Compound 6] | have the ability to prevent bacterial attachment | preventing bacterial attachment the best | Prevent Bacterial Attachment | Prevent Bacterial Attachment | do not Result in More than a One Log Reduction in S. mutans | – |
| [amino({[4-dodecanamido-4-(methylcarbamoyl)butyl]amino})methylidene]azanium [Compound 4] | have the ability to prevent bacterial attachment | – | – | – | do not Result in More than a One Log Reduction in S. mutans | – |
| CCCCCCCCCCCC(=O)NC(CCCN)C(=O)NCC (centres unmarked) [Compound 12, N-[4-amino-1-(ethylcarbamoyl)butyl]dodecanamide] | have the ability to prevent bacterial attachment | preventing bacterial attachment the best | Prevent Bacterial Attachment | Prevent Bacterial Attachment | do not Result in More than a One Log Reduction in S. mutans | – |
| CCCCCCCC(=O)NC(CCCNC(=N)N)C(=O)NCC (centres unmarked) [Compound 2, [amino({[4-(ethylcarbamoyl)-4-octanamidobutyl]amino})methylidene]azanium] | have the ability to prevent bacterial attachment | preventing bacterial attachment the best | Prevent Bacterial Attachment | Prevent Bacterial Attachment | do not Result in More than a One Log Reduction in S. mutans | significant decrease in peak area |
| CCCCCCCCNC(=O)C(CCCN)NC(=O)CCCCCCC (centres unmarked) [Compound 19, N-(5-amino-1-(octylamino)-1-oxopentan-2-yl)octanamide] | have the ability to prevent bacterial attachment | preventing bacterial attachment the best | – | – | – | – |
| CCCCCCCC(=O)NC(CCCNC(=N)N)C(=O)NCCCCCC (centres unmarked) [Compound 3, [amino({[4-(hexylcarbamoyl)-4-octanamidobutyl]amino})methylidene]azanium] | have the ability to prevent bacterial attachment | preventing bacterial attachment the best | Prevent Bacterial Attachment | Prevent Bacterial Attachment | do not Result in More than a One Log Reduction in S. mutans | – |
| CCCCCCCCCCCC(=O)NC(CCCN)C(=O)NCCCCCC (centres unmarked) [Compound 17, N-(5-amino-1-(hexylamino)-1-oxopentan-2-yl)dodecanamide] | have the ability to prevent bacterial attachment | preventing bacterial attachment the best | – | – | – | – |
| CCCCCCCCCCCC(=O)NC(CCCCN)C(=O)NCC (centres unmarked) [Compound 11, N-[5-amino-1-(ethylcarbamoyl)pentyl]dodecanamide] | have the ability to prevent bacterial attachment | – | Prevent Bacterial Attachment | Prevent Bacterial Attachment | do not Result in More than a One Log Reduction in S. mutans | – |
| CCCCCCCCCCCNC(=O)C(CCCN)NC(=O)CCCCCCC (centres unmarked) [Compound 18, N-(5-amino-1-oxo-1-(undecylamino)pentan-2-yl)octanamide] | have the ability to prevent bacterial attachment | preventing bacterial attachment the best | – | – | – | – |
| CCCCCCCCCCCCCCCCCC(=O)NC(CCCNC(=N)N)C(=O)NC (centres unmarked) [Compound 7] | – | – | – | – | do not Result in More than a One Log Reduction in S. mutans | – |
| CCCCCCCCCCCC(=O)NC(CCCNC(=N)N)C(=O)NCCCCCCCCCC (centres unmarked) [Compound 23, N-(1-(decylamino)-5-guanidino-1-oxopentan-2-yl)dodecanamide] | have the ability to prevent bacterial attachment | – | – | – | – | – |
| CCCCCCCCNC(=O)C(CCCNC(=N)N)NC(=O)CCCCCCC (centres unmarked) [Compound 21, N-(5-guanidino-1-(octylamino)-1-oxopentan-2-yl)octanamide] | have the ability to prevent bacterial attachment | preventing bacterial attachment the best | – | – | – | – |
| CCCCCCCCCCCNC(=O)C(CCCNC(=N)N)NC(=O)CCCCCCCCCCC (centres unmarked) [Compound 25, N-(5-guanidino-1-oxo-1-(undecylamino)pentan-2-yl)dodecanamide] | have the ability to prevent bacterial attachment | – | – | – | – | – |
| CCCCCCCCCCCNC(=O)C(CCCNC(=N)N)NC(=O)CCCCCCC (centres unmarked) [Compound 26, N-(5-guanidino-1-oxo-1-(undecylamino)pentan-2-yl)octanamide] | have the ability to prevent bacterial attachment | preventing bacterial attachment the best | – | – | – | – |
| CCCCCCCC(=O)NC(CCCNC(=N)N)C(=O)NC (centres unmarked) [Compound 1, [amino({[4-(methylcarbamoyl)-4-octanamidobutyl]amino})methylidene]azanium] | have the ability to prevent bacterial attachment | preventing bacterial attachment the best | Prevent Bacterial Attachment | Prevent Bacterial Attachment | do not Result in More than a One Log Reduction in S. mutans | – |
